Measurements taken from patent US6953800B2, “Use of selective antagonists of the α1B-adrenergic receptor for improvement of sexual dysfunction” (Recordati S.A. Chemical, priority 1999, dated 2005).
Where a name gives a salt, the structure may show the parent alone.

Tests used:
anaesthetised dogs = assay: Intracavernous and blood pressure recording in dogs
Description: Male beagle dogs were anaesthetised with pentobarbital sodium (i.v. Nembutal, 35 mg/kg for induction and 4 mg/kg/h for maintenance) and intubated with an endotracheal cuffed tube to facilitate free ventilation. A collateral of the left femoral vein was cannulated with a PE catheter for infusion of the anaesthetic. Systemic BP was monitored via a Mikro-tip 6F (Millar Instruments) pressure transducer introduced into the aortic arch through the right common carotid artery. ICP was measured by means of a 20-gauge needle placed into the left or right corpus cavernosum and the same needle was used for intracavernous injection of the drugs. The needle was attached to a catheter filled with heparinized saline (25 IU/mL). […] The compounds to be tested were injected intracavernously in a volume of 0.5 ml and, after each injection, the needle was flushed with 0.5 ml of saline. The vehicles for compound dissolution were tested before the first dose of each drug. The compounds were administered in a cumulative way, with a 30-minute interval between doses. ICP (mmHg) was measured at the peak effect after the administration of the compounds. The duration of tumescence (DT, min) was measured from the beginning of the rise of ICP over its basal value up to the return to baseline. The systolic blood pressure and diastolic blood pressure (mmHg) were measured at the peak effect after the administration of compounds, in order to evaluate the effects of the compounds on BP independently from the effects on ICP. Moreover, the systolic blood pressure was measured at the time of maximal ICP value after intracavernous injection, to evaluate the ICP/BP ratios. […] The data were reported as mean ±s.e. of the mean, or percent variation (±s.e.) of the basal values.

human α1b-adrenoceptor = target: T1, human α1b-adrenoceptor (Homo sapiens, UniProt P35368); assay: [3H]Prazosin binding, cloned human α1b-adrenoceptor in CHO cell membranes
T1 construct: expressed in transfected cells
T1 sequence (P35368 1-520): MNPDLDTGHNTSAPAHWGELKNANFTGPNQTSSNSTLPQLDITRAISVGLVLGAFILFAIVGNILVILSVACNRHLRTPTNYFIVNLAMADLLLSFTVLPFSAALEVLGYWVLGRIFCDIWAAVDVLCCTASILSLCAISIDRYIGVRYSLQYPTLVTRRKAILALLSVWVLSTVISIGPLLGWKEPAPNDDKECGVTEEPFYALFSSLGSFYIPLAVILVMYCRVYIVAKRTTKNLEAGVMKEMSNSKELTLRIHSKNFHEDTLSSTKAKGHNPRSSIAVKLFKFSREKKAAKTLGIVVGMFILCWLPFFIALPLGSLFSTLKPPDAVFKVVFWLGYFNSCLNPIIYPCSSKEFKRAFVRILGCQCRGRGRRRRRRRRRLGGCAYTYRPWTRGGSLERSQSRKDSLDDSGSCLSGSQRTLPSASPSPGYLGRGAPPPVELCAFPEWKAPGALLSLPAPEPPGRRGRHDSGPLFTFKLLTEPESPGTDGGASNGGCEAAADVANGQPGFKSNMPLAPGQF
Description: (§1) Binding to cloned human α1-adrenoceptor subtypes was performed in membranes from CHO cells (Chinese hamster ovary cells) transfected by electroporation with DNA expressing the gene encoding each α1-adrenoceptor subtype. […] The incubation was stopped by addition of ice-cold Tris buffer and rapid filtration through 0.2% polyethyleneimine-pretreated Whatman GF/B or Schleicher & Schuell GF52 filters.
(§2) Data are expressed as mean Ki. All patents and other references cited herein are incorporated by reference in their entirety.

human α1d-adrenoceptor = target: T2, human α1d-adrenoceptor (Homo sapiens, UniProt P25100); assay: [3H]Prazosin binding, cloned human α1d-adrenoceptor in CHO cell membranes; details: read-out: Affinity (Ki) α1d, human cloned receptors
T2 construct: expressed in transfected cells
T2 sequence (P25100 1-572): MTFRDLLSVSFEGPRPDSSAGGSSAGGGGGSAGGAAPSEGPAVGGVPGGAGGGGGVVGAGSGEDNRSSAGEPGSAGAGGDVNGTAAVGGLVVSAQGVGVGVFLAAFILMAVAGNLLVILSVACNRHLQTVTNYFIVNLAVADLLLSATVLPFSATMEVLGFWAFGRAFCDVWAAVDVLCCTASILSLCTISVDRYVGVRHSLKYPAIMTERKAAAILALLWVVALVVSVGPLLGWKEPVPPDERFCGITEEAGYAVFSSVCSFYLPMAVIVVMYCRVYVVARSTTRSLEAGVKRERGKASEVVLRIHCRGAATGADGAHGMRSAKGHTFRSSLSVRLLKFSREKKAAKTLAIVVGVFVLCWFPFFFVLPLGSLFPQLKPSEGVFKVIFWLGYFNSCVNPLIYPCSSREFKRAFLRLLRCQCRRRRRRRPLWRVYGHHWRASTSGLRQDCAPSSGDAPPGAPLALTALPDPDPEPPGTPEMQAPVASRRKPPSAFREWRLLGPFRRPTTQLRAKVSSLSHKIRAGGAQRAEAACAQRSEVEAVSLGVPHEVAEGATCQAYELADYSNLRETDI
Description: as §1, §2

human α1a-adrenoceptor = target: T3, human α1a-adrenoceptor (Homo sapiens, UniProt P35348); assay: biochemical
T3 sequence (P35348 1-466): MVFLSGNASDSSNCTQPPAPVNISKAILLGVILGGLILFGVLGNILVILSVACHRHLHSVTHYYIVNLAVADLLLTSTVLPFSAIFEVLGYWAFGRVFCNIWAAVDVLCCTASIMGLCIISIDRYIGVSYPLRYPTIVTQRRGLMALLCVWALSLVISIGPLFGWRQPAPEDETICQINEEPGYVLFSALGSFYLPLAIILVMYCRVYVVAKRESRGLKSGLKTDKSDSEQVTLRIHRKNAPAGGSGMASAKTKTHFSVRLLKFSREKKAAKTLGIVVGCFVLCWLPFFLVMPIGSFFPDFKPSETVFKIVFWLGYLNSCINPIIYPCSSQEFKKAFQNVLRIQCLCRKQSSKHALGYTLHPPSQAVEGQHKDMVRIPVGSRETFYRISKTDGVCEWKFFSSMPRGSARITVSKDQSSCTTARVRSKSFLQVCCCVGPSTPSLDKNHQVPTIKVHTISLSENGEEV

hamster α1b-adrenoceptor = target: T4, hamster α1b-adrenoceptor (Mesocricetus auratus, UniProt P18841); assay: [3H]Prazosin binding, hamster α1b-adrenoceptor in COS-7 cell membranes; details: COS-7 membranes, read-out: Affinity (Ki) α1b, animal cloned receptors
T4 construct: expressed in transfected cells; host or cells: COS-7 cells (transient), membranes
T4 sequence (P18841 1-515): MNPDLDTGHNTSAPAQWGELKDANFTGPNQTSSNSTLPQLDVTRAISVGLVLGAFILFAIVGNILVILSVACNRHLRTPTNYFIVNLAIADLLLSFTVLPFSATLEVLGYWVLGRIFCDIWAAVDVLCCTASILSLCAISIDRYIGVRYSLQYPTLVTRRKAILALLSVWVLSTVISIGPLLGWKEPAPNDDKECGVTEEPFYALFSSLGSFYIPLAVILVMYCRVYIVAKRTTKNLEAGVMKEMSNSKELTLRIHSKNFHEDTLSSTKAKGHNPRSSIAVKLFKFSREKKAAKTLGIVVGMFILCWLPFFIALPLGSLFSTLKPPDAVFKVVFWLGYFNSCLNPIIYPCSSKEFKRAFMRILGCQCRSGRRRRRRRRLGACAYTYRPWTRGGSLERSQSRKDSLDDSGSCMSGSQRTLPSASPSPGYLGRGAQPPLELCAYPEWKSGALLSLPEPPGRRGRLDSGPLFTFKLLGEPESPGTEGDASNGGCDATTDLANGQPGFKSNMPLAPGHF
Description: The incubation was stopped by addition of ice-cold Tris buffer and rapid filtration through 0.2% polyethyleneimine pretreated Whatman GF/B or Schleicher & Schuell GF52 filters.
as §2

## COc1cc2nc(N3CCN(C(=O)c4ccco4)[C@@H]4CCCC[C@@H]43)nc(N)c2cc1OC [Compound B, 4-Amino-6,7-dimethoxy-2-[(4aR,8aS)-4-(2-furoyl)-cis-octahydro-1-quinoxalinyl]-quinazoline hydrochloride]
Anaesthetised dogs; 3 μg/kg intracavernous
  DBP: 110.7 ± 5.5 mmHg
  DT (duration of tumescence): 2.5 ± 0.9 min
  ICP: 36.7 ± 2.2 mmHg
  SBP: 151.7 ± 7.3 mmHg
  SBPICP (SBP at the time of maximal ICP value): 153.3 ± 7.0 mmHg
  increase of ICP in comparison with basal ICP values: 13.7 mmHg
Anaesthetised dogs; 30 μg/kg intracavernous
  DBP: 107.3 ± 4.2 mmHg
  DT (duration of tumescence): 4.3 ± 2.0 min
  ICP: 49.3 ± 14.2 mmHg
  SBP: 150.0 ± 5.9 mmHg
  SBPICP (SBP at the time of maximal ICP value): 151.0 ± 5.7 mmHg
Anaesthetised dogs; 100 μg/kg intracavernous
  DBP: 104.3 ± 4.2 mmHg
  DT (duration of tumescence): 4.4 ± 1.6 min
  ICP: 52.7 ± 13.0 mmHg
  SBP: 146.0 ± 4.8 mmHg
  SBPICP (SBP at the time of maximal ICP value): 147.3 ± 5.0 mmHg
Anaesthetised dogs; 300 μg/kg intracavernous
  DBP: 98.0 ± 6.9 mmHg
  DT (duration of tumescence): 3.5 ± 1.1 min
  ICP: 57.3 ± 11.4 mmHg
  SBP: 139.0 ± 6.6 mmHg
  SBPICP (SBP at the time of maximal ICP value): 147.3 ± 5.7 mmHg
Anaesthetised dogs; 1000 μg/kg (1000 μg given for prazosin, phentolamine) intracavernous
  increase of ICP in comparison with basal ICP values: 73.3 mmHg
Anaesthetised dogs; 1000 μg/kg intracavernous
  DBP: 81.0 ± 4.3 mmHg
  ICP: 93.3 ± 6.2 mmHg
  SBP: 121.7 ± 4.9 mmHg
  SBPICP (SBP at the time of maximal ICP value): 135.7 ± 6.8 mmHg
Anaesthetised dogs; Compound B at the highest dose tested
  duration of action compared with reference compounds: higher than that of the reference compounds tested
Anaesthetised dogs; highest dose 1000 μg/kg
  hypotension on diastolic blood pressure (change): −31 mmHg
Anaesthetised dogs; intracavernous injection
  effect on ICP (in words): increased ICP in a dose-dependent way
Human α1b-adrenoceptor
  Ki: 0.17 nM
Human α1d-adrenoceptor
  Ki: 2.63 nM
Human α1a-adrenoceptor
  Ki: 9.43 nM
Hamster α1b-adrenoceptor
  Ki: 0.68 nM
